Measured values from US20240262845A1, “PYRIDINIUM SALTS, METHODS OF MAKING, AND METHODS OF USE” (UNIVERSITY OF WYOMING, priority 2023, published 2024).
Counter-ions that a name gives are not always drawn.

What was measured:
lysozyme = target: T1, lysozyme (Gallus gallus, UniProt P00698); assay: Photochemical labeling of lysozyme with pyridinium salts (General Procedure B, LC/MS); format: biochemical, chicken; settings: lysozyme labeling
T1 construct: Lysozyme (from chicken egg white, >40,000 units/mg of protein); purchased Sigma Aldrich; host or cells: chicken egg white
T1 sequence (P00698 19-147): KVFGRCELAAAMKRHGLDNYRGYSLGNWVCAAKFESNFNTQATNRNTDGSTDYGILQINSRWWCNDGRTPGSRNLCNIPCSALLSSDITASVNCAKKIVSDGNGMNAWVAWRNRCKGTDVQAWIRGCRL
Method: General Procedure B: Photochemical Irradiation of Peptides and Proteins: To a 2 mL Pyrex LC/MS vial (Thermo model #03-391-39) were sequentially added solutions containing the desired biomolecule, glutathione (GSH), pyridinium salt, and ammonium acetate (NH4OAc). The resulting solution was diluted to a final volume of 500 μL and then sparged using nitrogen for a minimum of 30 minutes prior to irradiation. The actively sparging solution was then placed in an EvoluChem™ PhotoRedOx Box photoreactor that was equipped with a Kessil, PR160 427 nm LED Lamp and was then irradiated (100% lamp intensity) for the designated time at room temperature while maintaining active sparging. The resultant reaction mixture was then analyzed directly by LC/MS. Analysis of labeling outcomes using LC/MS was performed either by extracted ion chromatogram intensities (method A) or by integrating the area under the peaks associated with peptide content (method B). These values were totaled, and estimated percentages were assigned according to relative intensities of peaks or ion counts.
Labeling of Lysozyme with Pyridinium Salt 2a (Lysozyme-2a Conjugate). Labeling of lysozyme (14.3 kDa) with the pyridinium salt 2a was performed by following general procedure B using the following solutions: lysozyme (27 μL, 182 μM, 10 μM final concentration), pyridinium salt 2a (200 μL, 500 μM, 200 μM final concentration), NH4OAc (100 μL, 100 mM, pH=6.9, 20 mM final concentration), glutathione (15 μL, 10 mM, 300 μM final concentration), and water (158 μL) with a 100% intensity irradiation time of 60 minutes. The reaction mixture was analyzed directly by LC/MS using method A and was estimated to have proceeded in >95% conversion and a 10.9:1 mono:di labeled ratio and 10% glutathionylation of all unlabeled and labeled protein content was observed.
Labeling of Lysozyme with Pyridinium Salt 2b (Lysozyme-2b Conjugate). Labeling of lysozyme (14.3 kDa) with the pyridinium salt 2b was performed by following general procedure Busing the following solutions: lysozyme (19 μL, 262 μM, […]), 2b (181 μL, 554 μM, 200 μM final concentration), NH4OAc (50 μL, 200 mM, pH=6.9, 20 mM final concentration), glutathione (50 μL, 3 mM, 300 μM final concentration), and water (200 μL) with a 100% intensity irradiation time of 10 minutes. The reaction mixture was analyzed directly by LC/MS using method A and was estimated to have proceeded with 83% conversion. […]
Labeling of Lysozyme with Pyridinium Salt 2c (Lysozyme-2c Conjugate). […] The reaction mixture was analyzed directly by LC/MS using method A and was estimated to have proceeded with 85% conversion and a 3.7:1 mono:di labeled ratio and 10% glutathionylation of all protein content was observed. […]

HEK293T cells = assay: In-situ chemoproteomic tryptophan profiling of live HEK293T cells; format: cell-based, human
Method: Cell culture and in-situ tryptophan probe treatment: Cell lines were cultured at 37° C. with 5% CO2. Human embryonic kidney 293 cells expressing a mutant version of the SV40 large T antigen (HEKT293T cells) were grown in Dulbecco's Modified Eagle Medium (DMEM, Gibco) supplemented with 10% fetal bovine serum and 1% penicillin/streptomycin. For in-situ labeling, cells were grown to 90% confluence, washed with Dulbecco's phosphate buffered saline (DPBS), treated with 100× stocks of the tryptophan probes (the pyridinium salts) in OptiMem (GibCo) to generate final concentrations (0 μM, 1 μM, 10 μM, and 100 μM) in 1% dimethylsulfoxide (DMSO). Cells were incubated for 1 hour at 37° C. with 5% CO2 followed by photo-activation at the respective wavelengths for 20 minutes at 4° C. Cells were harvested with a cell scraper, washed 3× with DPBS, and pellets were stored at −80° C. until further use. The following light sources were used for photo-activation:
In-situ tryptophan probe sample processing for peptide-level characterization: Cell pellets were lysed via sonication (QSonica) at 50% amplitude, 2 seconds ON, 3 seconds OFF, 30 seconds in 40 mM HEPES pH 7.5 (4-(2-hydroxyethyl)-1-piperazineethanesulfonic acid), 1.5 mM magnesium chloride (MgCl2), 1% Sodium dodecyl sulfate (SDS), 0.8% NP-40 (also known as nonyl phenoxypolyethoxylethanol), and 1× protease inhibitors (Thermo). Protein concentration was determined by BCA (Pierce). 400 μg protein lysate were taken for copper-catalyzed azide-alkyne cycloaddition (CuAAC) reactions with 100 μM of the acid cleavable DAPBS Biotin Alkyne (Click Chemistry Tools), 250 μM copper sulfate (CuSO4), 500 μM BTTP (C20H34N10O2) (Click Chemistry Tools), and 2.5 mM ascorbate and incubated for 60 minutes at R.T. Samples were precipitated with methanol:chloroform and re-suspended in 50 mM HEPES pH 8.0 containing 1% RapiGest SF (Waters). The samples were reduced with 10 mM dithiothreitol (DTT) (Pierce) and alkylated with 25 mM iodoacetamide (Pierce). The samples were diluted down to 0.1% RapiGest SF and treated with 4 μg Trypsin/LysC (Promega) at 37° C. for 16 hours. The digested peptides were than labeled with isobaric tandem mass tag (TMT) reagents (Thermo) as specified by the manufacturer. The labeled peptides were then combined, concentrated to remove acetonitrile, and re-suspended in 50 mM HEPES pH 8.0 containing 0.2% SDS. […]
Quantitative proteomics by two-dimensional nano liquid chromatography-tandem mass spectrometry (nLC-MS/MS): For protein-level characterization, the TMT-labeled sample were reconstituted in 0.1% formic acid (FA)/2% acetonitrile for offline high-pH reversed phase separation (RP10) using a Dionex UltiMate 3000 high-performance liquid chromatography (HPLC) system with fraction collection using Chromeleon v.6.8 (Thermo) software. […]

## COc1ccc2cc(-c3cc(C)[n+](N(C)C(=O)OCCCCCCN=[N+]=[N-])c(C)c3)ccc2c1 [pyridinium salt 2d, 1-((((6-azidohexyl)oxy)carbonyl)(methyl)amino)-4-(6-methoxynaphthalen-2-yl)-2,6-dimethylpyridin-1-ium tetrafluoroborate]
lysozyme
  labeling rate compared to pyridinium salt 2a: enhance rates
HEK293T cells; about 100 μM probe, 60 min 37° C., 440 nm 20 min 4° C., peptide-level enrichment
  Trp-modified peptide fragments detected showing dose response behavior: 290
HEK293T cells; subcellular localization of modified proteins (UniProt)
  plasma membrane crossing / subcellular penetration: readily crosses the plasma membrane
HEK293T cells; taking relative amino acid frequency in human proteins into account, FIG. 19B
  selectivity for tryptophan: about 82%
HEK293T cells; varying concentrations, with and without blue light, protein-level enrichment
  Western validation of NPM1 and PARP1 in enriched protein mixtures: found to contain both proteins
